Literature values in paper PMC4108727 (Angewandte Chemie (International ed. in English), 2013).

Target: MTH1 (Homo sapiens, UniProt P36639)
Conditions: substrate of MTH1; cited from earlier work

## Nc1ncnc2c1[nH]c(=O)n2[C@H]1C[C@H](O)[C@@H](COP(=O)(O)OP(=O)(O)OP(=O)(O)O)O1 [8-oxo-dATP]
  Km: 13.9 µM

## Nc1nc2c([nH]c(=O)n2[C@H]2C[C@H](O)[C@@H](COP(=O)(O)OP(=O)(O)OP(=O)(O)O)O2)c(=O)[nH]1 [8-oxo-dGTP]
  Km: 15.2 µM
